In patent US7964531B2, “3-phenoxy-4-pyridazinol derivatives and herbicidal composition containing the same” (Mitsui Chemicals Agro, Inc., priority 2001, dated 2011) one finds melting point data, which are given here for 45 compounds.

Counter-ions that a name gives are not always drawn.

By melting point is commonly meant the temperature, or range, at which the solid turns liquid. Turning to `Cc1cccc(C2CC2)c1Oc1nnc(Cl)cc1OC(=O)CC(C)(C)C` [Compound No. 2662, 6-Chloro-3-(2-cyclopropyl-6-methylphenoxy)-4-pyridazinyl 3,3-dimethylbutanoate], the melting point was 91 to 92 °C.

For `Cc1c(Cl)ccc(Br)c1Oc1nnc(Cl)cc1O` [Compound No. 1053, 3-(6-Bromo-3-chloro-2-methylphenoxy)-6-chloro-4-pyridazinol], the melting point is 254 to 260 °C.

`Oc1cc(Cl)nnc1Oc1ccccc1Cc1ccccc1` [Compound No. 315, 3-(2-Benzylphenoxy)-6-chloro-4-pyridazinol]: the melting point lay in the range of 185 to 187 °C.

Turning to `Oc1cc(Cl)nnc1Oc1ccc(F)cc1` [Compound No. 426, 6-Chloro-3-(4-fluorophenoxy)-4-pyridazinol], the melting point was 241 to 248 °C.

`Cc1ccccc1Oc1nnc(Cl)c(Oc2ccccc2C)c1O` [Compound No. 2395, 6-Chloro-3,5-bis(2-methylphenoxy)-4-pyridazinol] had a melting point of 110 to 115 °C.

For the compound `Cc1nc2c(Oc3nnc(Cl)cc3O)cccc2o1` [Compound No. 538, 6-Chloro-3-[(2-methyl-1,3-benzoxazol-4-yl)oxy]-4-pyridazinol], the melting point fell in the range of 221 to 222 °C.

For the compound `Cc1ccc(S(=O)(=O)Oc2ccccc2Oc2nnc(Cl)cc2OS(=O)(=O)c2ccc(C)cc2)cc1` (as salt: benzene sulfonate) [Compound No. 2233, 2-[(6-Chloro-4-{[(4-methylphenyl)sulfonyl]oxy}-3-pyridazinyl)oxy]phenyl 4-methylbenzene sulfonate], the melting point is 125.5 to 126.5 °C.

`CCS(=O)(=O)Oc1cc(Cl)nnc1Oc1c(C)cccc1C1CC1` [Compound No. 2034, 6-Chloro-3-(2-cyclopropyl-6-methylphenoxy)-4-pyridazinyl ethanesulfonate] yielded a melting point of 96 to 97 °C.

`CCc1c(C)cc(C)c(C)c1Oc1nnc(Cl)cc1O` [Compound No. 2601, 6-Chloro-3-(2-ethyl-3,5,6-trimethylphenoxy)-4-pyridazinol] came in with a melting point of 188 to 195 °C.

Compound `CCCc1cccc(CCC)c1Oc1nnc(Cl)cc1O` [Compound No. 890, 6-Chloro-3-(2,6-dipropylphenoxy)-4-pyridazinol] came in with a melting point of 191 to 193 °C.

Compound `CCCS(=O)(=O)Oc1cc(Cl)nnc1Oc1c(C)cccc1C1CC1` [Compound No. 2051, 6-Chloro-3-(2-cyclopropyl-6-methylphenoxy)-4-pyridazinyl 1-propanesulfonate] yielded a melting point of 70.5 to 71.5 °C.

In the case of `COC(=O)c1ccccc1Oc1nnc(Cl)cc1O` [Compound No. 339, Methyl 2-[(6-chloro-4-hydroxy-3-pyridazinyl)oxy]benzoate], the melting point fell in the range of 188 to 191 °C.

As to `Oc1cc(Cl)nnc1Oc1cccc(C(F)(F)F)c1F` [Compound No. 441, 6-Chloro-3-[2-fluoro-3-(trifluoromethyl)phenoxy]-4-pyridazinol], the melting point is 185 to 189 °C.

With `COc1ccc(Cl)cc1Oc1nnc(Cl)cc1O` [Compound No. 701, 3-(5-Chloro-2-methoxyphenoxy)-6-chloro-4-pyridazinol], the melting point lay in the range of 143 to 155 °C.

As to `Cc1cc(C)c(F)c(Oc2nnc(Cl)cc2O)c1C` [Compound No. 2597, 6-Chloro-3-(2-fluoro-3,5,6-trimethylphenoxy)-4-pyridazinol], the melting point was in the range of 258 to 260 °C.

`Cc1cccc(C2CC2(Cl)Cl)c1Oc1nnc(Cl)cc1O` (stereo not drawn) [Compound No. 827, 6-Chloro-3-[2-(2,2-dichlorocyclopropyl)-6-methylphenoxy]-4-pyridazinol]: the melting point fell in the range of 213 to 215 °C.

As for `Cc1nc2cccc(Oc3nnc(Cl)cc3O)c2o1` [Compound No. 549, 6-Chloro-3-[(2-methyl-1,3-benzoxazol-7-yl)oxy]-4-pyridazinol], the melting point lay in the range of 197 to 202 °C.

`CCCCCCCCCCCCCCC(=O)Oc1cc(Cl)nnc1Oc1c(C)cccc1C1CC1` [Compound No. 1260, 6-Chloro-3-(2-cyclopropyl-6-methylphenoxy)-4-pyridazinyl pentadecanoate] came in with a melting point of 35 to 37 °C.

As for `CCOC1CC1c1ccccc1Oc1nnc(Cl)cc1O` (stereo not drawn) [Compound No. 249, 6-Chloro-3-[2-(2-ethoxycyclopropyl)phenoxy]-4-pyridazinol], the melting point lay in the range of 145 to 152 °C.

As to `Cc1ccc(S(=O)(=O)Oc2cc(Cl)nnc2Oc2ccccc2C2CCCCC2)cc1` [Compound No. 2230, 6-Chloro-3-(2-cyclohexylphenoxy)-4-pyridazinyl 4-methylbenzenesulfonate], the melting point lay in the range of 120 to 121 °C.

Turning to `Cc1coc2cccc(Oc3nnc(Cl)cc3O)c12` [Compound No. 532, 6-Chloro-3-[(3-methyl-1-benzofuran-4-yl)oxy]-4-pyridazinol], the melting point was in the range of 218 to 225 °C.

Turning to `Cc1ccc2c(c1Oc1nnc(Cl)cc1O)COC2` [Compound No. 2592, 6-Chloro-3-[(5-methyl-1,3-dihydro-2-benzofuran-4-yl)oxy]-4-pyridazinol], the melting point was 188 to 200 °C.

Consider `Cc1ccc(S(=O)(=O)Oc2cc(Cl)nnc2Oc2ccccc2C(C)(C)C)cc1` [Compound No. 2224, 3-(2-tert-Butylphenoxy)-6-chloro-4-pyridazinyl 4-methylbenzenesulfonate], for which the melting point fell in the range of 98 to 99 °C.

As to `COCc1c(Cl)nnc(Oc2ccccc2C)c1O` [Compound No. 2378, 6-Chloro-5-(methoxymethyl)-3-(2-methylphenoxy)-4-pyridazinol], the melting point was in the range of 123 to 126 °C.

With `Oc1cc(Cl)nnc1Oc1ccccc1F` [Compound No. 124, 6-Chloro-3-(2-fluorophenoxy)-4-pyridazinol], the melting point lay within 210 to 212 °C.

Regarding `Cc1ccc(S(=O)(=O)Oc2cc(Cl)nnc2Oc2ccc(Br)cc2C(C)C)cc1` [Compound No. 2248, 3-(4-Bromo-2-isopropylphenoxy)-6-chloro-4-pyridazinyl 4-methylbenzenesulfonate], the melting point is 119 to 122 °C.

Compound `Cc1ccc(N(C)C)cc1Oc1nnc(Cl)cc1O` [Compound No. 628, 6-Chloro-3-[5-(dimethylamino)-2-methylphenoxy]-4-pyridazinol] registered a melting point of 181 to 182 °C.

Compound `Oc1cc(Cl)nnc1Oc1ccccc1C1CC1(F)Cl` (stereo not drawn) [Compound No. 2519, 6-Chloro-3-[2-(2-chloro-2-fluorocyclopropyl)phenoxy]-4-pyridazinol] displayed a melting point of 175 to 177 °C.

Turning to `COc1cccc(OC)c1C(=O)Oc1cc(Cl)nnc1Oc1c(C)cccc1C1CC1` [Compound No. 3162, 6-Chloro-3-(2-cyclopropyl-6-methylphenoxy)-4-pyridazinyl 2,6-dimethoxybenzoate], the melting point fell in the range of 127 to 128 °C.

With `CC(=O)c1ccc(Oc2nnc(Cl)cc2O)c(C)c1` [Compound No. 2570, 1-{4-[(6-Chloro-4-hydroxy-3-pyridazinyl)oxy]-3-methylphenyl}ethanone], the melting point lay within 182 to 184 °C.

In turn, `Cc1c(Oc2nnc(Cl)cc2O)cccc1[N+](=O)[O-]` [Compound No. 458, 6-Chloro-3-(2-methyl-3-nitrophenoxy)-4-pyridazinol] came in with a melting point of 241 to 244 °C.

`O=C(Oc1cc(Cl)nnc1Oc1ccccc1C1CC1)C1CC1` [Compound No. 1266, 6-Chloro-3-(2-cyclopropylphenoxy)-4-pyridazinyl cyclopropanecarboxylate]: the melting point was in the range of 122 to 125 °C.

In turn, `CON=C(C)c1ccc(Oc2nnc(Cl)cc2O)c(C)c1` [Compound No. 2571, 1-{4-[(6-Chloro-4-hydroxy-3-pyridazinyl)oxy]-3-methylphenyl}ethanone O-methyloxime] yielded a melting point of 189 to 192 °C.

`Oc1cc(Cl)nnc1Oc1cccc2c1CCCC2` [Compound No. 521, 6-Chloro-3-(5,6,7,8-tetrahydro-1-naphthalenyloxy)-4-pyridazinol] had a melting point of 232 to 237 °C.

Compound `CCc1cccc(CC)c1Oc1nnc(Cl)cc1O` [Compound No. 846, 6-Chloro-3-(2,6-diethylphenoxy)-4-pyridazinol] showed a melting point of 181 to 185 °C.

In turn, `O=[N+]([O-])c1ccccc1Oc1nnc(Cl)cc1O` [Compound No. 383, 6-Chloro-3-(2-nitrophenoxy)-4-pyridazinol] showed a melting point of 99 to 100 °C.

`Cc1cc(C)c(C2CC2)c(Oc2nnc(Cl)cc2O)c1` [Compound No. 1023, 6-Chloro-3-(2-cyclopropyl-3,5-dimethylphenoxy)-4-pyridazinol] gave a melting point of 200 to 203 °C.

In turn, `Oc1cc(Cl)nnc1Oc1cccc2c1CC2` [Compound No. 505, 3-(Bicyclo[4.2.0]octa-1,3,5-trien-2-yloxy)-6-chloro-4-pyridazinol] had a melting point of 145 to 155 °C.

`COc1cccc(OC)c1Oc1nnc(Cl)cc1O` [Compound No. 987, 6-Chloro-3-(2,6-dimethoxyphenoxy)-4-pyridazinol] returned a melting point of 199 to 201 °C.

Compound `CC1(C)Cc2cccc(Oc3nnc(Cl)cc3O)c2C1` [Compound No. 513, 6-Chloro-3-[(2,2-dimethyl-2,3-dihydro-1H-inden-4-yl)oxy]-4-pyridazinol] showed a melting point of 220 to 223 °C.

For the compound `C=CCc1ccccc1Oc1nnc(Cl)cc1O` [Compound No. 307, 3-(2-Allylphenoxy)-6-chloro-4-pyridazinol], the melting point is 200 to 202.5 °C.

In turn, `CC1CCc2c(Oc3nnc(Cl)cc3O)cccc21` (stereo not drawn) [Compound No. 510, 6-Chloro-3-[(1-methyl-2,3-dihydro-1H-inden-4-yl)oxy]-4-pyridazinol] displayed a melting point of 228 to 230 °C.

Take `Oc1cc(Cl)nnc1Oc1cc(C(F)(F)F)cc(C(F)(F)F)c1` [Compound No. 1009, 3-[3,5-Bis(trifluoromethyl)phenoxy]-6-chloro-4-pyridazinol]: the melting point lay within 237 to 242 °C.

The compound `Cc1ccccc1Oc1nnc(Cl)cc1OC(=O)N(C)C` returned a melting point of 107 to 109 °C.

On to `CC#Cc1ccccc1Oc1nnc(Cl)cc1O` [Compound No. 309, 6-Chloro-3-[2-(1-propynyl)phenoxy]-4-pyridazinol], for which the melting point fell in the range of 182 to 184 °C.
